Experimental data from patent US20240122930A1, “INTEGRIN INHIBITORS AND USES THEREOF IN COMBINATION WITH OTHER AGENTS” (Pliant Therapeutics, Inc., priority 2022, published 2024).

Key:
[1] = test system: pSmad2/Smad2; test: Alveolar (BAL) pSmad2/Smad2, change from baseline at 24 hours (FIG. 12, prior studies); assay type: in vivo, human; conditions: 80 mg and 160 mg, p<0.0001 at both doses
Text: FIG. 12 through FIG. 33 illustrate various details and results from the clinical trial. […] In FIG. 12, BAL refers to bronchoalveolar lavage; pSmad2/Smad2 refers to ratio of phosphorylated Smad2 to total Smad2; and QD refers to once daily. **** refers to p<0.0001.

[2] = test system: Type I Collagen gene Col1a1 expression; test: Precision cut lung slices, acute bleomycin exposure, Col1a1 expression; assay type: cell-based, mice (C57BL/6); conditions: acute bleomycin PCLS, 3 days culture; integrin inhibitors at IC50 for TGF-beta activation, pan-αV and ALK5 inhibitors at 10× IC50
Experimental: Mice (C57BL/6) were administered 3 U/kg of bleomycin (Teva Pharmaceuticals; North Wales, PA) on day 0 via oropharyngeal aspiration while under anesthesia. On day 14, precision cut lung slices were obtained. Following euthanization, 2% low gelling temp agarose was injected into the mouse lungs via the trachea. […] The lobes were then subjected to precision slicing to obtain samples for culture using a microtome (Compresstome VF-300-OZ, Precisionary; Greenville, NC). Individual slices were distributed in a multiwell culture plate and cultured for 3 days under control (DMSO) and test compound conditions. The viability of the slices over the course of culturing was confirmed by WST-1 assay of mitochondrial activity.

[3] = target: T1, αVβ6 (Homo sapiens, UniProt P06756+P18564); test: αVβ6 target engagement by [18F]FP-R01-MG-F2 PET/CT in participants with IPF; assay type: in vivo; parameters: Vt / Vs (Vt − VND): unit not given here; conditions: for Vs (Vt − VND): VND = 0.66
T1 construct: clinical trial evaluating αVβ6 receptor occupancy in the lungs; from tissue; host or cells: lungs of human participants with IPF (in vivo PET/CT)
Experimental: The aim of this Example is to assess target engagement of the disclosed compounds to αVβ6 in human participants with IPF using [^18F]FP-R01-MG-F2 PET/computerized tomography (CT) imaging.
This Example was conducted as an open-label, single-dose (60 mg, 120 mg, 240 mg or 320 mg) clinical trial evaluating αVβ6 receptor occupancy in the lungs, safety, and pharmacokinetics of Compound #5 in subjects with IPF. To date, 4 participants have completed the study. Each of these 4 participants was undergoing a pre-existing course of therapy using one of the SoC (Standard of Care) compounds, nintedanib. These participants continued their pre-existing nintedanib therapy throughout this study. Knottin tracer uptake kinetics were compared pre- and post-dose of the disclosed compound, as measured by standardized uptake values (SUVs) and parameters estimated from kinetic modeling in regions-of-interest on dynamic [^18F]FP-R01-MG-F2 PET/CT scans. […] Receptor occupancy was estimated from the output of the two-compartment model (VT, the […]) using standard equations and fitting algorithms, and corrections for VND (non-displaceable tracer binding). For example, in FIG. 10, the data points, shown as circles, are modeled by the following formula: […]
Five subjects with IPF were enrolled: Subject A received a single dose of 60 mg of the disclosed compound followed by a post-dose scan. Subject B received two doses of the disclosed compound separated by two weeks, 120 mg and 240 mg, each followed by a post-dose scan. Subject C received two doses of the disclosed compound separated by two weeks, 240 mg and 320 mg, each followed by a post-dose scan. Subject D received a single dose of 320 mg of the disclosed compound followed by a post-dose scan.

[4] = test system: participants with idiopathic pulmonary fibrosis (IPF); test: Phase 2a clinical trial: High Resolution CT-based Quantitative Lung Fibrosis (QLF) imaging; assay type: in vivo, human; conditions: for Mean Percent Change in QLF Extent From Baseline to Week 12 (Mean Difference) / Median change in QLF Extent From Baseline to Week 12 / QLF extent change Baseline to Week 12: Improvers < −2%, % / QLF extent change Baseline to Week 12: Stable [−2, 2%), % / QLF extent change Baseline to Week 12: Worse > 2%, %: CT Protocol Population
Experimental: Study Design and Objectives. […] At Day 1, baseline values were collected.
[…]-IPF study design and objectives.
QLF was measured by computed tomography. […] QLF refers to quantitative lung fibrosis. […] Per CT protocol population: Participants with both baseline and post baseline high resolution computed tomography (HRCT) scans meet evaluability criteria per Imaging Charter.

[5] = Phase 2a clinical trial: pharmacokinetics, sparse sampling, % unbound; assay type: in vivo, human; conditions: b1346 concentrations; b1380 unbound concentrations
Text: Overall Summary of Pharmacokinetics. Based on sparse sampling, overall Compound 5 pharmacokinetics and % unbound in IPF were consistent with that of previous studies. […] Overall % unbound was ˜0.3 to 0.5%. Full PK curve will be predicted using population PK model to project AUC0-24 and Cmax.
Pharmacokinetic Evaluation. Sparse PK sampling was utilized for pharmacokinetic evaluation.

[6] = test system: normal human bronchial epithelial cells; test: LAP adhesion assay, normal human bronchial epithelial cells (xCELLigence); assay type: cell-based; conditions: FIG. 3A
Experimental: Two latency associated peptide (LAP) adhesion binding assays were devised using primary human lung cells, including normal (healthy) human bronchial epithelial cells and human lung fibroblasts (healthy and IPF).
Human bronchial epithelial cells are known to express αVβ6 integrin in culture. Human bronchial epithelial cells were prepared for the assay by dissociation with trypsin/EDTA and were then seeded at 20,000 cells per well on 96 well plates (ACEA Bioscience E-plate View, Acea Biosciences; San Diego, CA) previously coated with 5 μg/ml of recombinant human LAP (R&D Systems; Minneapolis, MN) and blocked with 4% bovine serum albumin.

[7] = test system: participants with idiopathic pulmonary fibrosis (IPF); test: Phase 2a clinical trial: quantitative ground glass (QGG) score on HRCT; assay type: in vivo, human; conditions: for QGG score, Change to Week 12, LS Mean (SE): placebo 0.0 (0.63); for QGG score, Change to Week 24, LS Mean (SE): placebo −0.7 (1.66)
[8] = % target engagement fit of FIG. 10

T1 sequence (P06756 31-1048): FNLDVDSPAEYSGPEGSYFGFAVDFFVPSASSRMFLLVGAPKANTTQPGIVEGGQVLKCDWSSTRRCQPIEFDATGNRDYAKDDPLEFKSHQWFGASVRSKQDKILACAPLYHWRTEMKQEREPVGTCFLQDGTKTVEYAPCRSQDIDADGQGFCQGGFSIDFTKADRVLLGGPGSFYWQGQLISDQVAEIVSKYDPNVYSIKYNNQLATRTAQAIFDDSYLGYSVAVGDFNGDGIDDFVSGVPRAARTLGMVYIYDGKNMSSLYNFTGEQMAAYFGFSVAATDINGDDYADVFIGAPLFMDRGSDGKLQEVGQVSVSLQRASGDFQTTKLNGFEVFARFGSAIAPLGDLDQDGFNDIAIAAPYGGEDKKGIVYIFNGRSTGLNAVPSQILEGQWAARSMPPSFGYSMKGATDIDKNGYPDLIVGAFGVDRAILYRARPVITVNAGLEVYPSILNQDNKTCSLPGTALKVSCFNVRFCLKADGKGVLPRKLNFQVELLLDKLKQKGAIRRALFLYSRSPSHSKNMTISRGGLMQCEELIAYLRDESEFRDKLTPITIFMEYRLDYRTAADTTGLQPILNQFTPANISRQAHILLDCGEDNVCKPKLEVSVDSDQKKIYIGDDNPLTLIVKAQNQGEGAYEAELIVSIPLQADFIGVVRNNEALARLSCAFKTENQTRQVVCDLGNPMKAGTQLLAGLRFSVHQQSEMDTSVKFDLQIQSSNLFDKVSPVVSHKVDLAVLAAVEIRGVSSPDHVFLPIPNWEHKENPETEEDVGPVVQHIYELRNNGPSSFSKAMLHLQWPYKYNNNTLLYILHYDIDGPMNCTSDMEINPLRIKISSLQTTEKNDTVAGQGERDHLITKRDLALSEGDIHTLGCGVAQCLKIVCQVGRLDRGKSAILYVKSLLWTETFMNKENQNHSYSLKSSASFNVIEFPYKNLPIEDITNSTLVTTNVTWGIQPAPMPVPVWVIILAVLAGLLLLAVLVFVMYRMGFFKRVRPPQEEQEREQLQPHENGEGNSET
T1 sequence (P18564 22-788): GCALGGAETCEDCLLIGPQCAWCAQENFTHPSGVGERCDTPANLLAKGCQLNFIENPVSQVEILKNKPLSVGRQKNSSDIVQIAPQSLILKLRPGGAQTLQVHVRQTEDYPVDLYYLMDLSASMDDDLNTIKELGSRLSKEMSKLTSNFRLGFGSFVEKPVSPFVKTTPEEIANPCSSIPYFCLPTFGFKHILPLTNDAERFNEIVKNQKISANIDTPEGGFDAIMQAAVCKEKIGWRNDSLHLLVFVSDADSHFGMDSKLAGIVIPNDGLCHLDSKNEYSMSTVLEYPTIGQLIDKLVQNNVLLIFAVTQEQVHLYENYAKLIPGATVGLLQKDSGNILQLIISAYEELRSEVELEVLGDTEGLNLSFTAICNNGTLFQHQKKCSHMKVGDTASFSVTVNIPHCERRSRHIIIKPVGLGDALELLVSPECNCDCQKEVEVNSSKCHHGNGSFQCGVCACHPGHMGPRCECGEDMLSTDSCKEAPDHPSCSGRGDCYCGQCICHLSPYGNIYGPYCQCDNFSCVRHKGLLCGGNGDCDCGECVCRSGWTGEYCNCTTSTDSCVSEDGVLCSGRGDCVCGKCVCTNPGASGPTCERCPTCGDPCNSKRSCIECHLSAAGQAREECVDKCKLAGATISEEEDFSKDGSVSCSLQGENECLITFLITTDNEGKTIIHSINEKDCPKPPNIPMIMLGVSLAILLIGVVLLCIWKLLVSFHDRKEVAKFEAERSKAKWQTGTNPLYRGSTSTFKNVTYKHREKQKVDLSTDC

## COCCN(CCCCc1ccc2c(n1)NCCC2)CC[C@H](Nc1ncnc2ccccc12)C(=O)O [Compound 5, (S)-4-((2-methoxyethyl) (4-(5,6,7,8-tetrahydro-1,8-naphthyridin-2-yl)butyl)amino)-2-(quinazolin-4-ylamino) butanoic acid]
[1]
  Alveolar pSmad2/Smad2, Percentage Change from Baseline at 24 Hours vs. placebo: statistically significant
[2]
  Type I Collagen gene Col1a1 expression, normalized to DMSO control slices: decreased Type I Collagen gene Col1a1 expression substantially
[3]; 60 mg dose
  decrease of the volume of distribution of the knottin radiotracer in the lungs: approximately 50%
[3]; 240 and 320 mg doses
  decrease of the volume of distribution of the knottin radiotracer in the lungs: greater than 95%
[3]; [8]
  best-fit bottom value: 0
  best-fit hillslope value: 1.11
  best-fit top value: 87.4
[3]; Subject A, 60 mg
  Conc (Unbound Plasma Concentration): 3.66 nM
[3]; Subject A, post-dose 60 mg
  Vt: 1.84
  Vs (Vt − VND): 1.18
[3]; Subject B, 120 mg
  Conc (Unbound Plasma Concentration): 10 nM
[3]; Subject B, 120 mg, corrected for non-displaceable binding
  %DeltaVt: 59.76%
[3]; Subject B, 240 mg
  Conc (Unbound Plasma Concentration): 58.3 nM
[3]; Subject B, post-dose 120 mg
  Vt: 1.65
  Vs (Vt − VND): 0.99
[3]; Subject B, post-dose 240 mg
  Vt: 0.72
  Vs (Vt − VND): 0.06
[3]; Subject C, 240 mg
  Conc (Unbound Plasma Concentration): 103 nM
[3]; Subject C, post-dose 240 mg
  Vt: 0.98
  Vs (Vt − VND): 0.32
[3]; Subject C, post-dose 320 mg
  Vt: 0.85
  Vs (Vt − VND): 0.19
[3]; Subject D, 320 mg
  Conc (Unbound Plasma Concentration): 33.6 nM
[3]; Subject D, post-dose 320 mg
  Vt: 0.75
  Vs (Vt − VND): 0.09
[3]; at pharmacologically relevant plasma concentrations
  Receptor occupancy: > 95%
[3]; drug exposure at 4 hours, approaching 100% receptor occupancy
  concentration at which the exposure response saturates: about 100 nM
[3]; unbound plasma concentration vs % target engagement, 4-parameter non-linear regression (FIG. 10), read-out: best-fit EC50
  EC50: 2.96 nM
[4]; 40 mg (N = 15)
  Mean Percent Change in QLF Extent From Baseline to Week 12 (Mean Difference): 3.15%
  Median change in QLF Extent From Baseline to Week 12: 1.50%
  QLF extent change Baseline to Week 12: Improvers < −2%, %: (6.6%)
  QLF extent change Baseline to Week 12: Stable [−2, 2%), %: (46.7%)
  QLF extent change Baseline to Week 12: Worse > 2%, %: (46.7%)
[4]; 80 mg (N = 18)
  Mean Percent Change in QLF Extent From Baseline to Week 12 (Mean Difference): 0.7%
  Median change in QLF Extent From Baseline to Week 12: −0.45%
  QLF extent change Baseline to Week 12: Improvers < −2%, %: (11.1%)
  QLF extent change Baseline to Week 12: Stable [−2, 2%), %: (72.2%)
  QLF extent change Baseline to Week 12: Worse > 2%, %: (16.7%)
[4]; 160 mg (N = 14)
  Mean Percent Change in QLF Extent From Baseline to Week 12 (Mean Difference): 0%
  Median change in QLF Extent From Baseline to Week 12: −0.10%
  QLF extent change Baseline to Week 12: Improvers < −2%, %: (28.6%)
  QLF extent change Baseline to Week 12: Stable [−2, 2%), %: (50.0%)
  QLF extent change Baseline to Week 12: Worse > 2%, %: (21.4%)
[4]; 160 mg and 320 mg groups, Week 12
  Progression based on mean change from baseline in QLF: No or limited progression
[4]; 320 mg
  Likelihood of stabilization or improvement of fibrosis (QLF) relative to placebo at Week 24: twice as likely
[4]; 320 mg (n=16), Per CT protocol population, placebo (n=25) 1.46%
  Mean (SD) Change in QLF Extent from Baseline at Week 12: 0.2%
[4]; 320 mg, per CT protocol population, stable −2% to 2%, improved <−2%, placebo 33%
  Patients with stable or improved QLF from baseline at week 24: 71%
[4]; 320 mg, per CT protocol population, worsened >2%, placebo 67%
  Patients with worsened QLF from baseline at week 24: 29%
[4]; 40 to 320 mg, Week 12
  Antifibrotic effect on QLF imaging: Dose-dependent antifibrotic effect
[5]
  Concentrations in IPF participants versus dose: increased approximately proportionally with dose
[6]
  normal bronchial epithelial cell adhesion to LAP: substantially inhibited
[7]; 40 mg (n 15)
  QGG score, Change to Week 12, LS Mean Diff (SE) vs. Placebo: 1.3 (1.04)
  QGG score, Change to Week 12, LS Mean (SE): 1.3 (0.82)
[7]; 80 mg (n 18)
  QGG score, Change to Week 12, LS Mean Diff (SE) vs. Placebo: −1.2 (0.98)
  QGG score, Change to Week 12, LS Mean (SE): −1.2 (0.74)
[7]; 160 mg (n 14)
  QGG score, Change to Week 12, LS Mean Diff (SE) vs. Placebo: −0.1 (1.05)
  QGG score, Change to Week 12, LS Mean (SE): 0.0 (0.84)
[7]; 320 mg (n 14)
  QGG score, Change to Week 24, LS Mean Diff (SE) vs. Placebo: −1.2 (1.53)
  QGG score, Change to Week 24, LS Mean (SE): −1.8 (1.31)
[7]; 320 mg (n 16)
  QGG score, Change to Week 12, LS Mean Diff (SE) vs. Placebo: −0.2 (1.01)
  QGG score, Change to Week 12, LS Mean (SE): −0.2 (0.79)
[7]; All Compound 5 (n 14)
  QGG score, Change to Week 24, LS Mean Diff (SE) vs. Placebo: −1.2 (1.53)
  QGG score, Change to Week 24, LS Mean (SE): −1.8 (1.31)
[7]; All Compound 5 (n 63)
  QGG score, Change to Week 12, LS Mean Diff (SE) vs. Placebo: −0.1 (0.76)
  QGG score, Change to Week 12, LS Mean (SE): −0.1 (0.40)
[7]; instant study
  Ground glass scores over a 12-24 week period after treatment: decreased or remained stable
